The results in this text go back to patent EP3046573B1, “AMYLIN ANALOGUES” (Zealand Pharma A/S, priority 2013, dated 2015).

Data set [1] can be described thus: Solubility assessment (turbidity absorbance at 325 nm). To be noted: stock 2 mg/ml diluted 1:1, ambient temperature (typically 25°C), n=1; for Solubility, Acetate buffer pH 4: 100 mM acetate buffer pH 4.0; for Solubility, Acetate buffer pH 5: 100 mM acetate buffer pH 5.0; for Solubility, Histidine buffer pH 6: 100 mM histidine buffer pH 6.0; for Solubility, Histidine buffer pH 7: 100 mM histidine buffer pH 7.0; for Solubility, Phosphate buffer pH 6: 100 mM phosphate buffer pH 6.0; for Solubility, Phosphate buffer pH 7: 100 mM phosphate buffer pH 7.0; for Solubility, Phosphate buffer pH 7.5: 100 mM phosphate buffer pH7.5. The data set is classed as physicochemical. The essentials:
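Peptide stock (2 mg/ml) in water acidified to pH 2.5 with HCl was diluted 1:1 into 100 mM acetate (pH 4.0, 5.0), histidine (pH 6.0, 7.0) or phosphate (pH 6.0, 7.0, 7.5) buffer. A280 and A325 were read at about 25°C, n=1. A325 ≤ 0.02 meant solubility ≥ 1 mg/ml.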

Data set [2] concerns the target T1, human calcitonin receptor (hCTR2) (Homo sapiens, UniProt P30988).
T1 construct: expressed in transfected cells
T1 sequence (P30988 25-474): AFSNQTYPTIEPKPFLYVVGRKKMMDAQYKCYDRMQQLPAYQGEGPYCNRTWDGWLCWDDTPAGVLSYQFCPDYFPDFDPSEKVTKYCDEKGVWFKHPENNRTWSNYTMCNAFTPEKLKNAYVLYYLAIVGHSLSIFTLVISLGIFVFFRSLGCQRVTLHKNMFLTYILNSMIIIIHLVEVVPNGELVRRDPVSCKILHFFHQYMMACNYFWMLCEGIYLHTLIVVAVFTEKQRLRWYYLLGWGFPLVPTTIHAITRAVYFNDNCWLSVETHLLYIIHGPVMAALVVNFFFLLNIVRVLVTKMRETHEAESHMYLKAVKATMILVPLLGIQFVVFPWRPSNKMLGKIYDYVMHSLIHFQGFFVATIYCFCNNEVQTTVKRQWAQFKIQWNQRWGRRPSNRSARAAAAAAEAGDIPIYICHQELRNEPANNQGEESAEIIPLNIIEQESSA
As to the kind of experiment: hCTR2 assay: induction of cAMP (AlphaScreen cAMP Assay kit) in COS7 cells expressing hCTR2. In kind it is cell-based. The following applies: cAMP induction in COS7 cells expressing hCTR2; average of a minimum of 3 determinations; read-out: hCTR2 EC50. The essentials: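 COS7 stable hCTR2 clone (RAMP-free); peptide dose-response 15 min 37° C in Tyrode pH 7.4 + 100 µM IBMX + 0.1% casein; lysis 10 min RT; AlphaScreen cAMP; 4PL fit.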
For orientation: In Alpha technology, singlet oxygen from a donor bead excites a nearby acceptor bead.

In data set [3] the target is T2, human amylin receptor 3 (hAMYR3) consisting of hCTR2 co-expressed with human Receptor Activity Modifying Protein 3 (hRAMP3) (Homo sapiens, UniProt O60896+P30988).
T2 construct: expressed in transfected cells
T2 sequence (P30988 25-474): T1 sequence (P30988 25-474)
T2 sequence (O60896 24-148 partner): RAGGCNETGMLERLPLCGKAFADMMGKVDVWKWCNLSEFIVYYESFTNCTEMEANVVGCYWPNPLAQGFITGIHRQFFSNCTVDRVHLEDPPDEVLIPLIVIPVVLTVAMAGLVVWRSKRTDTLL
As to the kind of experiment: hAMYR3 assay: induction of cAMP (AlphaScreen cAMP Assay kit) in COS7 cells expressing hAMYR3. The data set is classed as cell-based. The essentials: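 Stable COS7 clone co-expressing hCTR2 and hRAMP3, stimulated 15 min at 37° C with increasing peptide in Tyrode buffer pH 7.4 with 100 µM IBMX and 0.1% casein. cAMP measured by AlphaScreen after lysis; EC50 and % efficacy versus pramlintide from 4PL fit.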

Each structure is given as a SMILES string. Where two headings read alike, the source gives them in different places. Numbered stars: 1 amine (or outer) side, 2 acyl side, 3 side chain; on linkers, the order of the positions; unused ones are H or OH. Bridge positions count the residues as written; N and C are the ends. Square brackets hold non-standard residues; d marks the D form. Peptide text beside a SMILES is read from it. * marks the point of attachment. C20 diacid = O=C(O)CCCCCCCCCCCCCCCCCCC(=O)*; γGlu = O=C(O)[C@H](CCC(=O)[*:2])N[*:1]; NMeI = CC[C@H](C)[C@H](NC)C(=O)O; Sar = CNCC(=O)O

Broadly, the EC50 is the concentration needed to bring the measured effect to its halfway point.

For the compound `CC[C@H](C)[C@@H](C(=O)N[C@@H](CC(C)C)C(=O)N[C@@H](CO)C(=O)N[C@@H](CO)C(=O)N[C@H](C(=O)N[C@@H](CCC(=O)O)C(=O)N[C@H](C(=O)NCC(=O)N[C@@H](CO)C(=O)N[C@@H](CCC(=O)O)C(=O)N[C@H](C(=O)N1CCC[C@H]1C(N)=O)[C@@H](C)O)C(C)C)[C@@H](C)O)N(C)C(=O)[C@H](C)NC(=O)CN(C)C(=O)[C@H](Cc1ccccc1)NC(=O)[C@H](CO)NC(=O)[C@H](CO)NC(=O)[C@H](CO)NC(=O)[C@H](CO)NC(=O)[C@H](CCCNC(=N)N)NC(=O)[C@H](Cc1c[nH]cn1)NC(=O)[C@H](CC(C)C)NC(=O)[C@H](Cc1ccccc1)NC(=O)[C@H](CCC(=O)O)NC(=O)[C@H](C)NC(=O)[C@H](CC(C)C)NC(=O)[C@H](CCCNC(=N)N)NC(=O)[C@H](CCC(N)=O)NC(=O)[C@@H](NC(=O)[C@H](C)NC(=O)[C@@H]1CSSC[C@H](NC(=O)[C@H](CCCNC(=N)N)NC(=O)CC[C@H](NC(=O)CCCCCCCCCCCCCCCCCCC(=O)O)C(=O)O)C(=O)N[C@@H](CC(=O)O)C(=O)N[C@@H]([C@@H](C)O)C(=O)N[C@@H](C)C(=O)N[C@@H]([C@@H](C)O)C(=O)N1)[C@@H](C)O` [Compound 127, [19CD]-isoGlu-RC()DTATC()ATQRLAEFLHRSSSSF-Gly(Me)-A-Ile(Me)-LSSTEVGSETP-NH2] ({C20 diacid-γGlu}-RCDTATCATQRLAEFLHRSSSSF[Sar]A[NMeI]LSSTEVGSETP-NH2; disulfide 2-7), in data set [1], the “Solubility, Acetate buffer pH 4” value is “SS (SS indicates solubility ≥ 1mg/ml)”; the “Solubility, Acetate buffer pH 5” value is “SS (SS indicates solubility ≥ 1mg/ml)”; the “Solubility, Histidine buffer pH 6” value was “SS (SS indicates solubility ≥ 1mg/ml)”; the “Solubility, Histidine buffer pH 7” value is on record as “SS (SS indicates solubility ≥ 1mg/ml)”. For the same compound, in data set [1], the “Solubility, Phosphate buffer pH 6” value is on record as “SS (SS indicates solubility ≥ 1mg/ml)”; the “Solubility, Phosphate buffer pH 7” value was “SS (SS indicates solubility ≥ 1mg/ml)”; the “Solubility, Phosphate buffer pH 7.5” value was “SS (SS indicates solubility ≥ 1mg/ml)”. Besides, the EC50 in data set [2] was 0.19 nM. In data set [3] (cAMP induction in COS7 cells expressing hAMYR3, average of a minimum of 3 determinations, read-out: hAMY R3 EC50), the EC50 was found to be 0.58 nM.

In the case of `CC[C@H](C)[C@@H](C(=O)N[C@@H](CC(C)C)C(=O)N[C@@H](CO)C(=O)N[C@@H](CO)C(=O)N[C@H](C(=O)N[C@@H](CCC(=O)O)C(=O)N[C@H](C(=O)NCC(=O)N[C@@H](CO)C(=O)N[C@@H](CCC(=O)O)C(=O)N[C@H](C(=O)N1CCC[C@H]1C(N)=O)[C@@H](C)O)C(C)C)[C@@H](C)O)N(C)C(=O)[C@H](C)NC(=O)CN(C)C(=O)[C@H](Cc1ccccc1)NC(=O)[C@H](CO)NC(=O)[C@H](CO)NC(=O)[C@H](CO)NC(=O)[C@H](CO)NC(=O)[C@H](CCCNC(=N)N)NC(=O)[C@H](Cc1c[nH]cn1)NC(=O)[C@H](CC(C)C)NC(=O)[C@H](Cc1ccccc1)NC(=O)[C@H](CCC(=O)O)NC(=O)[C@H](C)NC(=O)[C@H](CC(C)C)NC(=O)[C@H](CCCNC(=N)N)NC(=O)[C@H](CCC(N)=O)NC(=O)[C@@H](NC(=O)[C@H](C)NC(=O)[C@@H]1CSSC[C@H](NC(=O)[C@H](CCCNC(=N)N)NC(=O)CC[C@H](NC(=O)CCCCCCCCCCCCCCCCCCC(=O)O)C(=O)O)C(=O)N2CCC[C@H]2C(=O)N[C@@H]([C@@H](C)O)C(=O)N[C@@H](C)C(=O)N[C@@H]([C@@H](C)O)C(=O)N1)[C@@H](C)O` [Compound 129, [19CD]-isoGlu-RC()PTATC()ATQRLAEFLHRSSSSF-Gly(Me)-A-Ile(Me)-LSSTEVGSETP-NH2] ({C20 diacid-γGlu}-RCPTATCATQRLAEFLHRSSSSF[Sar]A[NMeI]LSSTEVGSETP-NH2; disulfide 2-7), in data set [1], the “Solubility, Acetate buffer pH 4” value is “SS (SS indicates solubility ≥ 1mg/ml)”; the “Solubility, Acetate buffer pH 5” value is “SS (SS indicates solubility ≥ 1mg/ml)”; the “Solubility, Histidine buffer pH 6” value is listed as “SS (SS indicates solubility ≥ 1mg/ml)”; the “Solubility, Histidine buffer pH 7” value is “SS (SS indicates solubility ≥ 1mg/ml)”. Moreover, in data set [1], the “Solubility, Phosphate buffer pH 6” value is on record as “SS (SS indicates solubility ≥ 1mg/ml)”; the “Solubility, Phosphate buffer pH 7” value is reported as “SS (SS indicates solubility ≥ 1mg/ml)”; the “Solubility, Phosphate buffer pH 7.5” value is listed as “SS (SS indicates solubility ≥ 1mg/ml)”. The EC50 in data set [2] came to 0.15 nM. This compound gave an EC50 in data set [3] of 0.15 nM.

With `CC[C@H](C)[C@@H](C(=O)N[C@@H](CC(C)C)C(=O)N[C@@H](CO)C(=O)N[C@@H](CO)C(=O)N[C@H](C(=O)N[C@@H](CCC(=O)O)C(=O)N[C@H](C(=O)NCC(=O)N[C@@H](CO)C(=O)N[C@@H](CCC(=O)O)C(=O)N[C@H](C(=O)N1CCC[C@H]1C(N)=O)[C@@H](C)O)C(C)C)[C@@H](C)O)N(C)C(=O)[C@H](C)NC(=O)CN(C)C(=O)[C@H](Cc1ccccc1)NC(=O)[C@H](CO)NC(=O)[C@H](CO)NC(=O)[C@H](CO)NC(=O)[C@H](CO)NC(=O)[C@H](CCCNC(=N)N)NC(=O)[C@H](Cc1c[nH]cn1)NC(=O)[C@H](CC(C)C)NC(=O)[C@H](Cc1ccccc1)NC(=O)[C@H](CCC(=O)O)NC(=O)[C@H](C)NC(=O)[C@H](CC(C)C)NC(=O)[C@H](CCCNC(=N)N)NC(=O)[C@H](CCC(N)=O)NC(=O)[C@@H](NC(=O)[C@H](C)NC(=O)[C@@H]1CSSC[C@H](NC(=O)[C@H](CCCNC(=N)N)NC(=O)CC[C@H](NC(=O)CCCCCCCCCCCCCCCCCCC(=O)O)C(=O)O)C(=O)NCC(=O)N[C@@H]([C@@H](C)O)C(=O)N[C@@H](C)C(=O)N[C@@H]([C@@H](C)O)C(=O)N1)[C@@H](C)O` [Compound 130, [19CD]-isoGlu-RC()GTATC()ATQRLAEFLHRSSSSF-Gly(Me)-A-Ile(Me)-LSSTEVGSETP-NH2] ({C20 diacid-γGlu}-RCGTATCATQRLAEFLHRSSSSF[Sar]A[NMeI]LSSTEVGSETP-NH2; disulfide 2-7), in data set [1], the “Solubility, Acetate buffer pH 4” value is on record as “SS (SS indicates solubility ≥ 1mg/ml)”; the “Solubility, Acetate buffer pH 5” value is “SS (SS indicates solubility ≥ 1mg/ml)”; the “Solubility, Histidine buffer pH 6” value is given as “SS (SS indicates solubility ≥ 1mg/ml)”; the “Solubility, Histidine buffer pH 7” value is “SS (SS indicates solubility ≥ 1mg/ml)”. For the same compound, in data set [1], the “Solubility, Phosphate buffer pH 6” value is listed as “SS (SS indicates solubility ≥ 1mg/ml)”; the “Solubility, Phosphate buffer pH 7” value is reported as “SS (SS indicates solubility ≥ 1mg/ml)”; the “Solubility, Phosphate buffer pH 7.5” value is listed as “SS (SS indicates solubility ≥ 1mg/ml)”. Moreover, in data set [2], the EC50 was 0.11 nM. Also, the EC50 in data set [3] worked out at 0.15 nM.
